Source: patent US9670231B2, “Fused tricyclic amide compounds as multiple kinase inhibitors” (BEIGENE, LTD., priority 2013, dated 2017)

How the values were obtained:
Format in all cases: biochemical
[1] = target: EGFR T790M/L858R kinase domain (Homo sapiens (Human), UniProt P00533, L858R/T790M); experiment: EGFR enzymatic assay, TR-FRET, EGFR T790M/L858R
Protocol: (§1) Compounds disclosed herein were tested against WT EGFR kinase domain (aa.669-1210, Carna Biosciences, 08-115), EGFR T790M/L858R kinase domain (aa.669-1210, Carna Biosciences, 08-510) and EGFR L858R kinase domain (aa.669-1210, Carna Biosciences, 08-502) in assays based on time-resolved fluorescence-resonance energy transfer methodology. The assay was carried out in 384-well low volume black plate in a reaction mixture containing EGFR kinases, 20 LM for EGFR WT and T790M/L858R, and 125 LM for EGFR L858R), biotin-TK substrate and 0-5 LM compounds in buffer containing 50 mM HEPES pH7.5, 10 mM MgCl2, 1 mM EGTA, 0.01% Brij-35, 2.5 mM DTT, 0.1% BSA. The kinase was incubated with the compounds disclosed herein at room temperature for 120 minutes and the reaction was initiated by the addition of ATP and biotin-TK substrate. After reaction at room temperature for 30 minutes, an equal volume of stop/detection solution was added according to the manufacture's instruction (CisBio Bioassays). The stop/detection solution contained TK-Antibody-Cryptate and Streptavidin-XL665 in buffer containing 25 mM Tris pH7.4, 400 mM KF, 50 mM EDTA, 0.01% BSA, 0.01% Triton X-100. Plates were sealed and incubated at room temperature for 1 hour, and the TR-FRET signals were read on BMG PHERAstar FS instrument. The IC50 of an inhibitor was derived from fitting the % inhibition data at each compound concentration to the four-parameter logistic equation by Graphpad Prism software.

EGFR L858R kinase domain = EGFR L858R kinase domain (Homo sapiens (Human), UniProt P00533, L858R); experiment: EGFR enzymatic assay, TR-FRET, EGFR L858R
EGFR L858R kinase domain, sequence (P00533 669-1210 L858R): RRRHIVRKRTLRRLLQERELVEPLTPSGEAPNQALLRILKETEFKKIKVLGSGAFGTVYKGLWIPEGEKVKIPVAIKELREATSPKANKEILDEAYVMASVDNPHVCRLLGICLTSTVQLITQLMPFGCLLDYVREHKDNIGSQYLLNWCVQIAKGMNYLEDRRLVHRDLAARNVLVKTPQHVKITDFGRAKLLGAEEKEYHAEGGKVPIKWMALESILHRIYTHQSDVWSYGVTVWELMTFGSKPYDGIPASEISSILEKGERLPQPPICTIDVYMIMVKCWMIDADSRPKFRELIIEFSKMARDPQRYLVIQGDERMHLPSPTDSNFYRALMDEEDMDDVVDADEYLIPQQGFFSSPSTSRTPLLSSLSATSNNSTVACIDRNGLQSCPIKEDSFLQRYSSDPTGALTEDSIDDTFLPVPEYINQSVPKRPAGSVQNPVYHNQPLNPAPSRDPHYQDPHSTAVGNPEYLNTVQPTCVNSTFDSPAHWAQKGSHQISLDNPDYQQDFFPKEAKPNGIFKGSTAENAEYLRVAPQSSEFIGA
Protocol: as §1

B-Raf (V600E) = B-Raf (V600E) (Homo sapiens (Human), UniProt P15056, V600E); experiment: Raf IC50 assay, TR-FRET, B-Raf (V600E); settings: 0.1 mM ATP; read-out: IC50 BRAF-V600E
B-Raf (V600E), sequence (P15056 whole entry V600E): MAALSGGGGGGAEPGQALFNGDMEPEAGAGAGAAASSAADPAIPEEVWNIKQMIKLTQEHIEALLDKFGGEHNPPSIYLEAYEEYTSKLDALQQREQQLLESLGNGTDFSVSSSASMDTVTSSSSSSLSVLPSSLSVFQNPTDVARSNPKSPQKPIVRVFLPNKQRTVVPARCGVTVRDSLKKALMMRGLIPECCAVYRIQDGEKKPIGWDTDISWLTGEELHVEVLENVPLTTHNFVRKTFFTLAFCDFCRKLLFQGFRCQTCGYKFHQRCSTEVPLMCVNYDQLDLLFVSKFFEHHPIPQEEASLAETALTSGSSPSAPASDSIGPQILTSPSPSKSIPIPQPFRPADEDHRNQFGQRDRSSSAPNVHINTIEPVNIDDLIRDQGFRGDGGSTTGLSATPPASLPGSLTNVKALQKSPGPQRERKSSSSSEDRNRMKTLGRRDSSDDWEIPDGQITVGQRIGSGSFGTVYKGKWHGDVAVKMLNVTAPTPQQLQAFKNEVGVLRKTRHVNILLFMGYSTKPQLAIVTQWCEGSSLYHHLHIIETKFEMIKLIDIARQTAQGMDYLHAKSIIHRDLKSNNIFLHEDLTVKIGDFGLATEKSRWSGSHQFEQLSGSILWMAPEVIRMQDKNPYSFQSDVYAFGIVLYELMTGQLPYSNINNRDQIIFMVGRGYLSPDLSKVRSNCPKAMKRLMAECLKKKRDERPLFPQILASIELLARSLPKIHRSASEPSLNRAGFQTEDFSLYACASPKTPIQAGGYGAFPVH
Protocol: The enzyme was incubated with the compounds disclosed herein at room temperature for 60 minutes and the reactions were initiated by the addition of ATP and GST-MEK1. After reaction at room temperature for 60 minutes, an equal volume of stop/detection solution was added according to the manufacture's instruction (CisBio Bioassays). […] The IC50 for each compound was derived from fitting the dose-response % inhibition data to the four-parameter logistic model by Graphpad Prism software.

WT EGFR kinase domain = WT EGFR kinase domain (Homo sapiens (Human), UniProt P00533); experiment: EGFR enzymatic assay, TR-FRET, WT EGFR
WT EGFR kinase domain, sequence (P00533 669-1210): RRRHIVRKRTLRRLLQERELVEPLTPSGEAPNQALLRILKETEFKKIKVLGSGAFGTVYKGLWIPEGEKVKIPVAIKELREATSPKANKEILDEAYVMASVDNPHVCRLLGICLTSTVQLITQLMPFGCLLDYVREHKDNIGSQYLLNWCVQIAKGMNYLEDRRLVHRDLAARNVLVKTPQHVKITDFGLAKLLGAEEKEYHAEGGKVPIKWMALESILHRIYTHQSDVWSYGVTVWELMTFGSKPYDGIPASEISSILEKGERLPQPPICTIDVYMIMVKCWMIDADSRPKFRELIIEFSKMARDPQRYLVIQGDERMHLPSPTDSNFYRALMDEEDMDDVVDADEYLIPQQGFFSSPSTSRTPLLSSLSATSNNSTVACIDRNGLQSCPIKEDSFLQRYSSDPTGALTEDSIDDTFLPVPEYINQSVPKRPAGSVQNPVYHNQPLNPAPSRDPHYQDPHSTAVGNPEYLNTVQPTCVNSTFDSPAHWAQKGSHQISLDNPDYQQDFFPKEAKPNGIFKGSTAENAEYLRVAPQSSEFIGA
Protocol: as §1

EGFR T790M/L858R kinase domain, sequence (P00533 669-1210 T790M/L858R): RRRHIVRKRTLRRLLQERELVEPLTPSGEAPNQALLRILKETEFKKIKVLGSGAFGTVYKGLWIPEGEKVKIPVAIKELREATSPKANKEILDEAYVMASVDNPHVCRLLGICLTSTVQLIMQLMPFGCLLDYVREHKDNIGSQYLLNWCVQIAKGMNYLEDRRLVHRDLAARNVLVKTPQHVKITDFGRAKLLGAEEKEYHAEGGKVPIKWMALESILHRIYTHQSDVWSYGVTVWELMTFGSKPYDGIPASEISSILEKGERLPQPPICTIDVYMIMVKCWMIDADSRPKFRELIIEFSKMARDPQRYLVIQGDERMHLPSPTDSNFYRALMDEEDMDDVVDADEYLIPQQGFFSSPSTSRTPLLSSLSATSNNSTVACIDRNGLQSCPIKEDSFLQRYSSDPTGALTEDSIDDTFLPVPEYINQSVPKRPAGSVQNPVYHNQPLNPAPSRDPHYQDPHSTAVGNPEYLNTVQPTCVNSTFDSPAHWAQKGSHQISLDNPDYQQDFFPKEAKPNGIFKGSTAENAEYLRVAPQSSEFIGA

SMILES	IC50 [1] [nM]	IC50 (EGFR L858R kinase domain) [nM]	IC50 (B-Raf (V600E)) [nM]	IC50 (WT EGFR kinase domain) [nM]
O=C1CCc2c(Oc3ccc4c(c3)[C@H]3[C@H](NC(=O)c5ccc(CN6CCN(CC(F)(F)F)CC6)c(C(F)(F)F)c5)[C@H]3O4)ccnc2N1 [Compound 1.2]	813	292	27	249
CCN1CCN(Cc2cc(F)cc(C(=O)N[C@@H]3[C@H]4Oc5ccc(Oc6ccnc7c6CCC(=O)N7)cc5[C@@H]34)c2)CC1 [Compound 1.6]			1.7	
CN1CCN(Cc2ccc(C(=O)N[C@@H]3[C@H]4Oc5ccc(Oc6ccnc7c6CCC(=O)N7)cc5[C@@H]34)cc2)CC1 [Compound 1.11]	18	0.57	5.9	1.28
C[C@@H]1CN(Cc2ccc(C(=O)N[C@@H]3[C@H]4Oc5ccc(Oc6ccnc7c6CCC(=O)N7)cc5[C@@H]34)cc2C(F)(F)F)C[C@H](C)O1 [Compound 1.13]	47	11	86	59
CCN1CCN(Cc2ccc(C(=O)N[C@@H]3[C@H]4Oc5ccc(Oc6ccnc7c6CCC(=O)N7)cc5[C@@H]34)cc2Cl)CC1 [Compound 1.18]			5.7	
CCN1CCN(Cc2ccc(C(=O)N[C@@H]3[C@H]4Oc5ccc(Oc6ccnc7c6CCC(=O)N7)cc5[C@@H]34)cc2Br)CC1 [Compound 1.19]	1.1	0.27	5.4	0.55
CN1CCN(Cc2ccc(C(=O)N[C@@H]3[C@H]4Oc5ccc(Oc6ccnc7c6CCC(=O)N7)cc5[C@@H]34)cc2F)CC1 [Compound 1.21]	3	0.28	8.8	1.3
CN1CCN(Cc2ccc(C(=O)N[C@@H]3[C@H]4Oc5ccc(Oc6ccnc7c6CCC(=O)N7)cc5[C@@H]34)cc2Cl)CC1 [Compound 1.22]	0.47	0.23	4.8	0.8
CN1CCN(Cc2ccc(C(=O)N[C@@H]3[C@H]4Oc5ccc(Oc6ccnc7c6CCC(=O)N7)cc5[C@@H]34)cc2Br)CC1 [Compound 1.23]	0.52	0.24	5.4	1.1
CCCCCCCCCCCC(=O)N[C@@H]1[C@H]2Oc3ccc(Oc4ccnc5c4CCC(=O)N5)cc3[C@@H]12 [Compound 1.28]	885	287		809
C[C@@H]1CN(Cc2ccc(C(=O)N[C@@H]3[C@H]4Oc5ccc(Oc6ccnc7c6CCC(=O)N7)cc5[C@@H]34)cc2C(F)(F)F)CCN1 [Compound 1.30]	2.7	0.46		0.69
CN1CCN(Cc2ccc(C(=O)N[C@H]3[C@@H]4Oc5ccc(Oc6ccnc7c6CCC(=O)N7)cc5[C@H]34)cc2C(F)(F)F)CC1 [Compound 1.34]	119	29	11	254
CN(C)[C@@H]1CCCN(c2ccc(C(=O)N[C@@H]3[C@H]4Oc5ccc(Oc6ccnc7c6CCC(=O)N7)cc5[C@@H]34)cc2C(F)(F)F)C1 [Compound 1.48]	5.3	0.91	16	1.7
CCN1CCN(c2ccc(C(=O)N[C@@H]3[C@H]4Oc5ccc(Oc6ccnc7c6CCC(=O)N7)cc5[C@@H]34)cc2C(F)(F)F)CC1 [Compound 1.50]	25	7.1	11	6.3
CCN1CCN(Cc2ccc(C(=O)NC3C4Oc5c(C)cc(Oc6ccnc7c6CCC(=O)N7)cc5C34)cc2C(F)(F)F)CC1 (stereo not shown) [Compound 1.55, 4-((4-ethylpiperazin-1-yl)methyl)-N-(3-methyl-5-((7-oxo-5,6,7,8-tetrahydro-1,8-naphthyridin-4-yl)oxy)-1a,6b-dihydro-1H-cyclopropa[b]benzofuran-1-yl)-3-(trifluoromethyl)benzamide]	0.4	0.35	18	2.2
Cc1cc(Oc2ccnc3c2CCC(=O)N3)cc2c1OC1C(NC(=O)c3ccc(CN4CCN(C)CC4)c(C(F)(F)F)c3)C21 (stereo not shown) [Compound 1.56]	0.47	0.4	21	2.5
CCN1CCN(Cc2ccc(C(=O)N[C@@H]3[C@H]4Oc5ccc(Oc6ccnc7c6CCC(=O)N7)cc5[C@@H]34)cc2C)CC1 [Compound 1.57, 4-((4-ethylpiperazin-1-yl)methyl)-3-methyl-N-((1S,1aS,6bS)-5-((7-oxo-5,6,7,8-tetrahydro-1,8-naphthyridin-4-yl)oxy)-1a,6b-dihydro-1H-cyclopropa[b]benzofuran-1-yl)benzamide]	3.1	0.5	6.4	1.5
Cc1cc(C(=O)N[C@@H]2[C@H]3Oc4ccc(Oc5ccnc6c5CCC(=O)N6)cc4[C@@H]23)ccc1CN1CCN(C)CC1 [Compound 1.58]	1.8	0.31	5.5	1.2
Cc1cc(C(=O)N[C@@H]2[C@H]3Oc4ccc(Oc5ccnc6c5CCC(=O)N6)cc4[C@@H]23)ccc1CO [Compound 1.59, 4-(hydroxymethyl)-3-methyl-N-((1S,1aS,6bS)-5-((7-oxo-5,6,7,8-tetrahydro-1,8-naphthyridin-4-yl)oxy)-1a,6b-dihydro-1H-cyclopropa[b]benzofuran-1-yl)benzamide]	6.2	4.8	1	19
O=C1CCc2c(Oc3ccc4c(c3)[C@H]3[C@H](NC(=O)Cc5cccc(C(F)(F)F)c5)[C@H]3O4)ccnc2N1 [Compound 1.60]	2550	949	1.5	3450
O=C1CCc2c(Oc3ccc4c(c3)[C@H]3[C@H](NC(=O)c5ccnc(C(F)(F)F)c5)[C@H]3O4)ccnc2N1 [Compound 1.61]	237	76	1.5	132
O=C1CCc2c(Oc3ccc4c(c3)[C@H]3[C@H](NC(=O)c5cncc(C(F)(F)F)c5)[C@H]3O4)ccnc2N1 [Compound 1.62]	114	28	1.3	42
O=C1CCc2c(Oc3ccc4c(c3)[C@H]3[C@H](NC(=O)c5cccc(C(F)(F)F)n5)[C@H]3O4)ccnc2N1 [Compound 1.63]	234	296	2.5	1140
CCN1CCC(Oc2ccc(C(=O)N[C@@H]3[C@H]4Oc5ccc(Oc6ccnc7c6CCC(=O)N7)cc5[C@@H]34)cc2C(F)(F)F)CC1 [Compound 1.64]	0.46	< 0.25	12	1.1
CC1CN(Cc2ccc(C(=O)N[C@@H]3[C@H]4Oc5ccc(Oc6ccnc7c6CCC(=O)N7)cc5[C@@H]34)cc2C(F)(F)F)CC(C)N1 (stereo partly drawn) [Compound 1.65, 4-((3,5-dimethylpiperazin-1-yl)methyl)-N-((1S,1aS,6bS)-5-((7-oxo-5,6,7,8-tetrahydro-1,8-naphthyridin-4-yl)oxy)-1a,6b-dihydro-1H-cyclopropa[b]benzofuran-1-yl)-3-(trifluoromethyl)benzamide]	11	1.1	8.1	1.9
CN(C)Cc1cc(C(=O)N[C@@H]2[C@H]3Oc4ccc(Oc5ccnc6c5CCC(=O)N6)cc4[C@@H]23)cc(C(F)(F)F)c1 [Compound 1.66]	81	13	3.6	9.3
CCCCCC(=O)N[C@@H]1[C@H]2Oc3ccc(Oc4ccnc5c4CCC(=O)N5)cc3[C@@H]12 [Compound 1.67]	1410	182	0.6	385
CCCCCCC(=O)N[C@@H]1[C@H]2Oc3ccc(Oc4ccnc5c4CCC(=O)N5)cc3[C@@H]12 [Compound 1.68]	95	71	0.77	98
CCCCCCCC(=O)N[C@@H]1[C@H]2Oc3ccc(Oc4ccnc5c4CCC(=O)N5)cc3[C@@H]12 [Compound 1.69]	782	116	2	118
CN1C(C)(C)CC(Oc2ccc(C(=O)N[C@@H]3[C@H]4Oc5ccc(Oc6ccnc7c6CCC(=O)N7)cc5[C@@H]34)cc2C(F)(F)F)CC1(C)C [Compound 1.77, N-((1S,1aS,6bS)-5-((7-oxo-5,6,7,8-tetrahydro-1,8-naphthyridin-4-yl)oxy)-1a,6b-dihydro-1H-cyclopropa[b]benzofuran-1-yl)-4-((1,2,2,6,6-pentamethylpiperidin-4-yl)oxy)-3-(trifluoromethyl)benzamide]			13	
